Laboratory results as given in paper PMC6407913, “DREADD Agonist 21 Is an Effective Agonist for Muscarinic-Based DREADDs in Vitro and in Vivo” (ACS Pharmacology & Translational Science, 2018).
Where “and” joins values, the source holds several entries; their conditions need not be identical. Identical values can stand only once.

Columns and labels:
Format in all cases: cell-based
[1] = molecular target: T1, 318 nonolfactory human GPCRs (Homo sapiens, UniProt Q9Y2T5); conditions: GPR52; C21 5 µM
T1 construct: expressed in transfected cells; host or cells: HTLA cells, transient
T1 sequence (Q9Y2T5 whole entry): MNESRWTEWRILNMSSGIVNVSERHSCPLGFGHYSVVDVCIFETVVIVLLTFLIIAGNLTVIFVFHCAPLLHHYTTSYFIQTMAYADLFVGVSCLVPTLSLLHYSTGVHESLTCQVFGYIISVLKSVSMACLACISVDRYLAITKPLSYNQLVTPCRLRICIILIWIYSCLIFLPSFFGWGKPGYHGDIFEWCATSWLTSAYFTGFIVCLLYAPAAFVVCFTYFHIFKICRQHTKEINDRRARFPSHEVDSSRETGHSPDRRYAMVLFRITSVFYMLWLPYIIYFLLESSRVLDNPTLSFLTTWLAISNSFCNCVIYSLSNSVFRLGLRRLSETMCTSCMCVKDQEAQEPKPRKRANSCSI

[2] = molecular target: 318 nonolfactory human GPCRs (Homo sapiens, UniProt P28566); conditions: HTR1E; C21 5 µM
[3] = molecular target: T2, 318 nonolfactory human GPCRs (Homo sapiens, UniProt P04201); conditions: MAS1; C21 5 µM
T2 construct: expressed in transfected cells; host or cells: HTLA cells, transient

[4] = molecular target: T3, 318 nonolfactory human GPCRs (Homo sapiens, UniProt Q9Y5N1); conditions: HRH3; C21 5 µM
T3 construct: expressed in transfected cells; host or cells: HTLA cells, transient

[5] = molecular target: T4, 318 nonolfactory human GPCRs (Homo sapiens, UniProt Q9NS66); conditions: GPR173; C21 5 µM
T4 construct: expressed in transfected cells; host or cells: HTLA cells, transient

[6] = molecular target: T5, 318 nonolfactory human GPCRs (Homo sapiens, UniProt Q8TDS7); conditions: MRGPRD; C21 5 µM
T5 construct: expressed in transfected cells; host or cells: HTLA cells, transient

[7] = molecular target: T6, 318 nonolfactory human GPCRs (Homo sapiens, UniProt P24530); conditions: EDNRB; C21 5 µM
T6 construct: expressed in transfected cells; host or cells: HTLA cells, transient
T6 sequence (P24530 27-442): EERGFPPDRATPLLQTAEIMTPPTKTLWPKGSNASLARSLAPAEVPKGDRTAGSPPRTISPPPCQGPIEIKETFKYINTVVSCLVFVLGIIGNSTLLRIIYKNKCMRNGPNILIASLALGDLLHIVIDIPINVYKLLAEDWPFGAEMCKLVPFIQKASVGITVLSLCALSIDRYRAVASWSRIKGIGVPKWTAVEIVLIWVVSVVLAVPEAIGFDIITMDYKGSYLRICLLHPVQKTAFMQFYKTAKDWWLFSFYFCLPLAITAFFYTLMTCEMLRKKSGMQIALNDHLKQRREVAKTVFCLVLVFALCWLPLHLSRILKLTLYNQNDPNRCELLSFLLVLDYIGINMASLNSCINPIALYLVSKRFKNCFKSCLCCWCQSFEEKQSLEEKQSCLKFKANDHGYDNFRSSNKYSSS

[8] = molecular target: T7, 318 nonolfactory human GPCRs (Homo sapiens, UniProt P50391); conditions: NPY4R; C21 5 µM
T7 construct: expressed in transfected cells; host or cells: HTLA cells, transient

[9] = molecular target: 318 nonolfactory human GPCRs (Homo sapiens, UniProt P30872); conditions: SSTR1; C21 5 µM
318 nonolfactory human GPCRs (Homo sapiens, UniProt P30872), sequence (P30872 whole entry): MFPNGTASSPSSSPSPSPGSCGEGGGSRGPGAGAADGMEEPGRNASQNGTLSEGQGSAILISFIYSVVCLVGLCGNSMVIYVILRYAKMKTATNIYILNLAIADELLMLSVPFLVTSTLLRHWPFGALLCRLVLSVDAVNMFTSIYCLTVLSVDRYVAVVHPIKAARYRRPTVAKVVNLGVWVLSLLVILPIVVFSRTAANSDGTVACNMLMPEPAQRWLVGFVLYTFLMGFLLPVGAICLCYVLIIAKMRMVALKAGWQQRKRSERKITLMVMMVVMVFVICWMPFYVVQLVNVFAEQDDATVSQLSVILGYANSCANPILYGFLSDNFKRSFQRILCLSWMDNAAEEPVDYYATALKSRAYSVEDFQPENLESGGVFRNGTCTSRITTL

[10] = molecular target: 318 nonolfactory human GPCRs (Homo sapiens, UniProt P47211); conditions: GAL1; C21 5 µM
[11] = molecular target: T8, 318 nonolfactory human GPCRs (Homo sapiens, UniProt Q8NFJ6); conditions: PK2; C21 5 µM
T8 construct: expressed in transfected cells; host or cells: HTLA cells, transient

[12] = molecular target: T9, 318 nonolfactory human GPCRs (Homo sapiens, UniProt P21452); conditions: TACR2; C21 5 µM
T9 construct: expressed in transfected cells; host or cells: HTLA cells, transient

[13] = molecular target: T10, 318 nonolfactory human GPCRs (Homo sapiens, UniProt O14843); conditions: FFA3; C21 5 µM
T10 construct: expressed in transfected cells; host or cells: HTLA cells, transient

[14] = molecular target: T11, 318 nonolfactory human GPCRs (Homo sapiens, UniProt Q96AM1); conditions: MRGPRF; C21 5 µM
T11 construct: expressed in transfected cells; host or cells: HTLA cells, transient
T11 sequence (Q96AM1 whole entry): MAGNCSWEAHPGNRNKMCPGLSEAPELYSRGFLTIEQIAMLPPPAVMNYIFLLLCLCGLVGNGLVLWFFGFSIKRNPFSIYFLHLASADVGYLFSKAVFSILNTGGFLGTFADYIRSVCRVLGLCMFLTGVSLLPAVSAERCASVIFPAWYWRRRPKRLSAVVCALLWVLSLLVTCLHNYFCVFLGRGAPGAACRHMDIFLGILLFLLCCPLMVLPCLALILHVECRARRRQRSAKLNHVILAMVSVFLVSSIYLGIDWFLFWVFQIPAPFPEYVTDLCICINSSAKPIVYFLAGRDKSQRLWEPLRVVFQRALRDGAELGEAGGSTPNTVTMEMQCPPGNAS

[15] = molecular target: T12, 318 nonolfactory human GPCRs (Homo sapiens, UniProt Q9UJ42); conditions: GPR160; C21 5 µM
T12 construct: expressed in transfected cells; host or cells: HTLA cells, transient

[16] = molecular target: T13, 318 nonolfactory human GPCRs (Homo sapiens, UniProt P32302); conditions: CXCR5; C21 5 µM
T13 construct: expressed in transfected cells; host or cells: HTLA cells, transient
T13 sequence (P32302 whole entry): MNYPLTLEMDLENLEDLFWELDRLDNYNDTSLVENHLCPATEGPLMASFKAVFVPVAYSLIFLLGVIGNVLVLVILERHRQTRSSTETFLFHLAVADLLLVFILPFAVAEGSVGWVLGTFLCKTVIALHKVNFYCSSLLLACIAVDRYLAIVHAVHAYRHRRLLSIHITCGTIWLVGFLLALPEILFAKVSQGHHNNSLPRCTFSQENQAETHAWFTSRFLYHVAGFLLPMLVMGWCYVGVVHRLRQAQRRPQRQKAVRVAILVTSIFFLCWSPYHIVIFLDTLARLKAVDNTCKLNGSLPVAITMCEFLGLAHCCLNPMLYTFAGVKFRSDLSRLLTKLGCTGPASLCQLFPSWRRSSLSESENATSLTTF

[17] = molecular target: T14, 318 nonolfactory human GPCRs (Homo sapiens, UniProt P41587); conditions: VIPR2; C21 5 µM
T14 construct: expressed in transfected cells; host or cells: HTLA cells, transient
T14 sequence (P41587 24-438): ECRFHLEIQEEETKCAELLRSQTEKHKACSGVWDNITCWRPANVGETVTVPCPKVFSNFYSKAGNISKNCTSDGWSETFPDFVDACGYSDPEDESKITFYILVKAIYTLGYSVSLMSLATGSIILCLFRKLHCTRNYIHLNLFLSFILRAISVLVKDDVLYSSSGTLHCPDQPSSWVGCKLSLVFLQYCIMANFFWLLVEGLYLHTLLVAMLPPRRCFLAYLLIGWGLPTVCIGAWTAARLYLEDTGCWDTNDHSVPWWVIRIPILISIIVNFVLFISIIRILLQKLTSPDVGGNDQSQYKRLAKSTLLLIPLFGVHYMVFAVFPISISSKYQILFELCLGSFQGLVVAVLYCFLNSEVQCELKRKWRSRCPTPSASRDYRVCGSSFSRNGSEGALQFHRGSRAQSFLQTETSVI

[18] = molecular target: T15, 318 nonolfactory human GPCRs (Homo sapiens, UniProt P41231); conditions: P2RY2; C21 5 µM
T15 construct: expressed in transfected cells; host or cells: HTLA cells, transient

[19] = molecular target: T16, 318 nonolfactory human GPCRs (Homo sapiens, UniProt P32241); conditions: VIPR1; C21 5 µM
T16 construct: expressed in transfected cells; host or cells: HTLA cells, transient

[20] = molecular target: T17, 318 nonolfactory human GPCRs (Homo sapiens, UniProt P33032); conditions: MC5R; C21 5 µM
T17 construct: expressed in transfected cells; host or cells: HTLA cells, transient
T17 sequence (P33032 whole entry): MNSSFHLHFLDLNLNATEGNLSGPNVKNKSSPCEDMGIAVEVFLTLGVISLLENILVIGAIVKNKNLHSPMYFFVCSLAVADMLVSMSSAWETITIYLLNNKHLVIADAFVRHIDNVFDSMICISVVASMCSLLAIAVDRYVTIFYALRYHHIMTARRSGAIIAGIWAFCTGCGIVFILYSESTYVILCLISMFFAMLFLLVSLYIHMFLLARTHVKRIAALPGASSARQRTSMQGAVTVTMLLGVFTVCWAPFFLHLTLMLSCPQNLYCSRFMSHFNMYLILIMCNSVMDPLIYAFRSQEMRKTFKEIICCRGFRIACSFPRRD

[21] = molecular target: T18, 318 nonolfactory human GPCRs (Homo sapiens, UniProt P46091); conditions: GPR1; C21 5 µM
T18 construct: expressed in transfected cells; host or cells: HTLA cells, transient
T18 sequence (P46091 whole entry): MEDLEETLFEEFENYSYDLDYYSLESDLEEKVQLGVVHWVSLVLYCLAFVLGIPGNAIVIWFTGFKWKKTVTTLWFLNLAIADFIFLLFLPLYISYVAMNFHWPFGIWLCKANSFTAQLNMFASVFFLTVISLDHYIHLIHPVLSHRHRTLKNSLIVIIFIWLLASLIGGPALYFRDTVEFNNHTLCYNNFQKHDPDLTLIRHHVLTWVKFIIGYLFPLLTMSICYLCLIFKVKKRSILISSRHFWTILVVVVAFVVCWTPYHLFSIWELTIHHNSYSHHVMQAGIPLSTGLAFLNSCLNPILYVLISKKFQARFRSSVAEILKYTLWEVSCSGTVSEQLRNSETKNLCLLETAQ

[22] = molecular target: 318 nonolfactory human GPCRs (Homo sapiens, UniProt P25021); conditions: HRH2; C21 5 µM
318 nonolfactory human GPCRs (Homo sapiens, UniProt P25021), sequence (P25021 whole entry): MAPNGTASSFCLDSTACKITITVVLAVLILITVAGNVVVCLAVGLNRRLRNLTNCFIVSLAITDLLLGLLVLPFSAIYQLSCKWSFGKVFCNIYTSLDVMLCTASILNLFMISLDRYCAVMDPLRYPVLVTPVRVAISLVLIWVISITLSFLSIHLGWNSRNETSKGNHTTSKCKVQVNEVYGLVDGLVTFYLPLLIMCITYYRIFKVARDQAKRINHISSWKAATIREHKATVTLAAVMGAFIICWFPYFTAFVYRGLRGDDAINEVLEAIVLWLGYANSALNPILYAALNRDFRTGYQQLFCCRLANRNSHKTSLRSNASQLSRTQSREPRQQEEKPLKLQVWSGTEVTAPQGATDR

[23] = molecular target: T19, 318 nonolfactory human GPCRs (Homo sapiens, UniProt Q8IZP9); conditions: GPR64; C21 5 µM
T19 construct: expressed in transfected cells; host or cells: HTLA cells, transient

[24] = molecular target: 318 nonolfactory human GPCRs (Homo sapiens, UniProt Q96PE1); conditions: GPR124; C21 5 µM
[25] = molecular target: T20, 318 nonolfactory human GPCRs (Homo sapiens, UniProt P29274); conditions: ADORA2A; C21 5 µM
T20 construct: expressed in transfected cells; host or cells: HTLA cells, transient
T20 sequence (P29274 whole entry): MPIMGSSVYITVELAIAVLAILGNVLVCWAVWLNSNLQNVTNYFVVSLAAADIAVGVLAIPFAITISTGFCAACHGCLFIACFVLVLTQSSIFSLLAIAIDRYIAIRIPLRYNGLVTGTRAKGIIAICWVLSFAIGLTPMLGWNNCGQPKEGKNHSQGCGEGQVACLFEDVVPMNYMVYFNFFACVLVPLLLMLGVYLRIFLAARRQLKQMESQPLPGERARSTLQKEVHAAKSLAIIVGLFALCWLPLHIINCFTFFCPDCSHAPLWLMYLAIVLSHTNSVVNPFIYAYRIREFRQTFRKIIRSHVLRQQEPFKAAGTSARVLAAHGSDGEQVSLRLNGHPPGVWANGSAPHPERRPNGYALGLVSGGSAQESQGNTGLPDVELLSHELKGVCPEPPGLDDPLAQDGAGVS

[26] = molecular target: T21, 318 nonolfactory human GPCRs (Homo sapiens, UniProt Q9HBW9); conditions: ELTD1; C21 5 µM
T21 construct: expressed in transfected cells; host or cells: HTLA cells, transient
T21 sequence (Q9HBW9 20-690): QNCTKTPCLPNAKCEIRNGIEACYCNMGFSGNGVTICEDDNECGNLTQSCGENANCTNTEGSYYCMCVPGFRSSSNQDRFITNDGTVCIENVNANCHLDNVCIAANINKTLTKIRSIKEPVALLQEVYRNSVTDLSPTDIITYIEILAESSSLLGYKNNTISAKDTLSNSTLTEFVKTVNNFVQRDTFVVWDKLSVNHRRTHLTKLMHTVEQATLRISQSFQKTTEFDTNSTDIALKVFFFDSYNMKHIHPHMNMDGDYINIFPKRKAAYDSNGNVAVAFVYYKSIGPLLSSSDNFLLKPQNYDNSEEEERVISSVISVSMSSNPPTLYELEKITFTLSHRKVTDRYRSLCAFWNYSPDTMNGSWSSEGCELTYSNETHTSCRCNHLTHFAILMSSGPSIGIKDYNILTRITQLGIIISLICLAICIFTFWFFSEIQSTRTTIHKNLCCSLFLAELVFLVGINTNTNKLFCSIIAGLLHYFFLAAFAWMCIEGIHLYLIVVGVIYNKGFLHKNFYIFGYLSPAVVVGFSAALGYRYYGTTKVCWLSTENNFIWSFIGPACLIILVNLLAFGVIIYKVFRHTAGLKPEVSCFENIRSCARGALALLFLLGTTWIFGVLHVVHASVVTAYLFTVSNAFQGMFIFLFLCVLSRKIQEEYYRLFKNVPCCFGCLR

[27] = molecular target: T22, 318 nonolfactory human GPCRs (Homo sapiens, UniProt P47871); conditions: GCGR; C21 5 µM
T22 construct: expressed in transfected cells; host or cells: HTLA cells, transient

[28] = molecular target: T23, 318 nonolfactory human GPCRs (Homo sapiens, UniProt Q9GZQ6); conditions: NPFF1; C21 5 µM
T23 construct: expressed in transfected cells; host or cells: HTLA cells, transient

[29] = molecular target: T24, 318 nonolfactory human GPCRs (Homo sapiens, UniProt Q8NFN8); conditions: GPR156; C21 5 µM
T24 construct: expressed in transfected cells; host or cells: HTLA cells, transient

[30] = molecular target: T25, 318 nonolfactory human GPCRs (Homo sapiens, UniProt Q86SQ4); conditions: GPR126; C21 5 µM
T25 construct: expressed in transfected cells; host or cells: HTLA cells, transient

[31] = molecular target: 318 nonolfactory human GPCRs (Homo sapiens, UniProt Q13258); conditions: PTGDR; C21 5 µM
318 nonolfactory human GPCRs (Homo sapiens, UniProt Q13258), sequence (Q13258 whole entry): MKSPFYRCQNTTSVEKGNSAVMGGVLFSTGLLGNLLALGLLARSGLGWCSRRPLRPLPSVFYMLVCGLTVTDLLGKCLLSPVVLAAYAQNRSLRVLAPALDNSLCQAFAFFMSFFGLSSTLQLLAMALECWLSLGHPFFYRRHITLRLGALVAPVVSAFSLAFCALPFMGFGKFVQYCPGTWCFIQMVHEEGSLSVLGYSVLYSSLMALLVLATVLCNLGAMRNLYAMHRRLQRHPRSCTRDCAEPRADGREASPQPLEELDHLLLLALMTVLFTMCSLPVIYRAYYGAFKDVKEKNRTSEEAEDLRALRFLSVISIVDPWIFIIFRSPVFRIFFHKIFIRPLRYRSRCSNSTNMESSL

[32] = molecular target: T26, 318 nonolfactory human GPCRs (Homo sapiens, UniProt Q96LB2); conditions: MRGPRX1; C21 5 µM
T26 construct: expressed in transfected cells; host or cells: HTLA cells, transient

[33] = molecular target: 318 nonolfactory human GPCRs (Homo sapiens, UniProt P32238); conditions: CCKAR; C21 5 µM
[34] = molecular target: T27, 318 nonolfactory human GPCRs (Homo sapiens, UniProt Q99677); conditions: LPA4; C21 5 µM
T27 construct: expressed in transfected cells; host or cells: HTLA cells, transient

c1ccc2c(c1)N=C(N1CCNCC1)c1ccccc1N2 [C21, 11-(1-piperazinyl)-5H-dibenzo[b,e][1,4]diazepine]
FOLD OVER BASAL [1]: 0.8 fold and 1 fold and 0.6 fold | FOLD OVER BASAL [2]: 1 fold and 0.9 fold and 1.1 fold | FOLD OVER BASAL [3]: 1.1 fold and 0.9 fold and 1 fold | FOLD OVER BASAL [4]: 1.3 fold and 0.9 fold and 0.8 fold | FOLD OVER BASAL [5]: 0.8 fold and 0.5 fold | FOLD OVER BASAL [6]: 0.7 fold and 0.9 fold and 0.6 fold | FOLD OVER BASAL [7]: 0.8 fold and 1 fold and 0.5 fold and 0.7 fold | FOLD OVER BASAL [8]: 0.5 fold and 0.6 fold and 0.7 fold | FOLD OVER BASAL [9]: 1 fold and 0.6 fold and 0.8 fold | FOLD OVER BASAL [10]: 0.7 fold and 0.5 fold and 0.9 fold and 0.8 fold | FOLD OVER BASAL [11]: 0.9 fold and 1 fold and 1.1 fold and 1.3 fold | FOLD OVER BASAL [12]: 0.7 fold and 0.9 fold and 0.6 fold and 1.1 fold | FOLD OVER BASAL [13]: 0.6 fold and 0.7 fold | FOLD OVER BASAL [14]: 1.4 fold and 1.3 fold and 1 fold and 0.7 fold | FOLD OVER BASAL [15]: 1.3 fold and 1 fold and 0.8 fold | FOLD OVER BASAL [16]: 0.9 fold and 1.3 fold and 1.2 fold | FOLD OVER BASAL [17]: 0.6 fold and 0.8 fold and 0.9 fold | FOLD OVER BASAL [18]: 1.4 fold and 1.2 fold and 1.3 fold and 1 fold | FOLD OVER BASAL [19]: 0.6 fold and 0.9 fold and 0.8 fold | FOLD OVER BASAL [20]: 1.2 fold and 0.9 fold and 1.3 fold and 1 fold | FOLD OVER BASAL [21]: 1.1 fold and 1.4 fold and 0.8 fold and 1 fold | FOLD OVER BASAL [22]: 1.7 fold and 1.4 fold and 1.6 fold and 1.3 fold | FOLD OVER BASAL [23]: 0.6 fold and 0.7 fold and 0.8 fold | FOLD OVER BASAL [24]: 1 fold and 0.7 fold | FOLD OVER BASAL [25]: 0.6 fold and 0.7 fold and 0.5 fold and 0.4 fold | FOLD OVER BASAL [26]: 0.6 fold and 0.8 fold and 1 fold and 0.7 fold | FOLD OVER BASAL [27]: 0.3 fold and 0.2 fold and 0.4 fold | FOLD OVER BASAL [28]: 1.5 fold and 1.1 fold and 1.2 fold | FOLD OVER BASAL [29]: 1.1 fold and 0.9 fold and 1.4 fold | FOLD OVER BASAL [30]: 0.3 fold and 0.4 fold | FOLD OVER BASAL [31]: 1.3 fold and 1.5 fold and 1 fold and 1.4 fold | FOLD OVER BASAL [32]: 0.6 fold and 1.2 fold | FOLD OVER BASAL [33]: 1.2 fold and 0.8 fold and 0.7 fold | FOLD OVER BASAL [34]: 1.2 fold and 1.1 fold and 0.8 fold
